Assay [1] has as its target GST-tagged recombinant full-length human PIM-2 (Homo sapiens (Human), UniProt Q9P1W9). The experiment in a line: PIM-2 Enzyme Assay. To be noted: read-out: PIM-2 IC50.
Assay [2] addresses PIM-1 (Homo sapiens (Human), UniProt P11309). The experiment in a line: PIM-1 Enzyme Assay. The class given is biochemical. The conditions noted are these: 35 μM ATP, 0.25 nM PIM-1. In short, it runs like this: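 Radiometric kinase assay in 20 mM K+MOPS pH 7.4, 10 mM MgCl2, 0.005% Tween-20, 1 mM DTT, 2% DMSO final; 60 min at 22° C, stopped with H3PO4, product captured on P81 filter and counted by scintillation. IC50 from 4-parameter logistic fit of percent of control.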

Assay [3] deals with recombinant rat PIM-3 (Rattus norvegicus (Rat), UniProt O70444). Put plainly: PIM-3 Enzyme Assay. The conditions noted are these: read-out: PIM-3 IC50; 30 μM ATP, 0.5 nM PIM-3.
Experimental: The amount of radiolabeled product is then measured by liquid scintillation counting. The final buffer conditions were as follows: 20 mM K^+MOPS, pH 7.4, 10 mM MgCl2, 0.005% Tween-20, 1 mM DTT. […] Incubations were carried out for 60 min at 22° C. and quenched with 75 μL of 200 mM H3PO4, filtered through a Whatman P81 plate and washed (1×200 μL and 5×100 μL ) with 200 mM H3PO4. Liquid scintillation cocktail (50 μL ) was then added per well, and the plate was counted for 30 s/well using a TopCount NXT.
One-μL aliquots of these were then transferred to the assay mixtures above to give a final concentration of DMSO of 2%. […] For each plate, percent of control (POC) values were calculated for each well. IC50's were estimated from the POC's using a standard 4-parameter logistic model. The IC50 is defined as the concentration of inhibitor at which the POC equals 50 for the fitted curve.

Data on 28 compounds can be found in patent US8575145B2, “Triazolopyridine compounds as PIM kinase inhibitors” (Array BioPharma Inc., priority 2008, dated 2013).

Structures can show the parent of a compound that is named as a salt. Where two headings read alike, the source gives them in different places.

PIM-1, sequence (P11309 whole entry, species assumed): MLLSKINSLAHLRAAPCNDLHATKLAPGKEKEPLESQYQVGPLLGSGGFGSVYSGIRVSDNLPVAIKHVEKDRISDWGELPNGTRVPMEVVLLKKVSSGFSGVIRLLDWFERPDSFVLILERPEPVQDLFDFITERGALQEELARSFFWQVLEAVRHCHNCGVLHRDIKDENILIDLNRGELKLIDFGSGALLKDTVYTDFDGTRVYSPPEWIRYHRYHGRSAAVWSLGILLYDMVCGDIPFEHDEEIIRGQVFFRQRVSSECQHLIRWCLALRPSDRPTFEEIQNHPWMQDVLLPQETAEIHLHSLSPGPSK
GST-tagged recombinant full-length human PIM-2, sequence (Q9P1W9 whole entry): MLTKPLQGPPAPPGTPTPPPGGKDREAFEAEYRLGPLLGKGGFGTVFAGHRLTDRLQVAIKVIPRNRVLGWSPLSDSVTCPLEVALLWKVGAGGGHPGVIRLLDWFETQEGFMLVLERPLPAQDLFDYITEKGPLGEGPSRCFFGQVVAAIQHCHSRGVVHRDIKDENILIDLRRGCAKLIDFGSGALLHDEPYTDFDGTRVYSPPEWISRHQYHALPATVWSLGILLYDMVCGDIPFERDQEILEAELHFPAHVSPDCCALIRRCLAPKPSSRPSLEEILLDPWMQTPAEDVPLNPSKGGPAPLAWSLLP

Consider `Fc1cc(OC2CCNCCC2F)c2nc(-c3nnc4ccccn34)ccc2c1` (single isomer, unassigned) [Example 120, 2-([1,2,4]triazolo[4,3-a]pyridin-3-yl)-6-fluoro-8-((cis)-5-fluoroazepan-4-yloxy)quinoline], for which the IC50 (usually the midpoint of a concentration-inhibition curve) in assay [1] (4 μM ATP, […] PIM-2) is 959 nM; in assay [2], 11 nM; in assay [3], 10.9 nM.

On to `Fc1cc(OC2CCNCCC2F)c2nc(-c3nnc4ccccn34)ccc2c1` (single isomer, unassigned) [Example 121, 2-([1,2,4]triazolo[4,3-a]pyridin-3-yl)-6-fluoro-8-(trans-5-fluoroazepan-4-yloxy)quinoline], for which the IC50 worked out at 520 nM in assay [1] (4 μM ATP, […] PIM-2); 30.5 nM in assay [2]; 16.1 nM in assay [3].

Turning to `Cc1ccn2c(-c3ccc4cccc(OC5CCNCCC5F)c4n3)nnc2c1` (single isomer, unassigned) [Example 122, 8-((cis-4,5)-5-fluoroazepan-4-yloxy)-2-(7-methyl-[1,2,4]triazolo[4,3-a]pyridin-3-yl)quinoline], the IC50 in assay [1] (4 μM ATP, […] PIM-2) was determined as 1000 nM; in assay [2], 17.5 nM; in assay [3] it was 23.5 nM.

`c1cc(OC2CCCNCC2)c2nc(-c3nnc4ccccn34)ccc2c1` (single isomer, unassigned) [Example 127, 2-([1,2,4]triazolo[4,3-a]pyridin-3-yl)-8-(azepan-4-yloxy)quinoline]: the IC50 was determined as 438 nM in assay [1] (4 μM ATP, […] PIM-2); 4.8 nM in assay [2]; 6.8 nM in assay [3].

Consider `c1cc(OC2CCCNCC2)c2nc(-c3nnc4ccccn34)ccc2c1` (single isomer, unassigned) [Example 128, 2-([1,2,4]triazolo[4,3-a]pyridin-3-yl)-8-(azepan-4-yloxy)quinoline], for which the IC50 stood at 1000 nM in assay [1] (4 μM ATP, […] PIM-2); 19.1 nM in assay [2]; 79.4 nM in assay [3].

In the case of `O[C@H]1CC[C@H](Nc2cccc3ccc(-c4nnc5ccccn45)nc23)CC1` [Example 3, (trans)-4-(2-([1,2,4]Triazolo[4,3-a]pyridin-3-yl)quinolin-8-ylamino)cyclohexanol], the IC50 in assay [1] (4 μM ATP, […] PIM-2) came to 807 nM; in assay [2], 3 nM; in assay [3], 25 nM.

For `c1cc(N[C@H]2CCNC2)c2nc(-c3nnc4ccccn34)ccc2c1` [Example 4, (S)-2-([1,2,4]Triazolo[4,3-a]pyridin-3-yl)-N-(pyrrolidin-3-yl)quinolin-8-amine], the IC50 in assay [1] (4 μM ATP, […] PIM-2) was 6020 nM; in assay [2], 22 nM; in assay [3] it was 105 nM.

`c1cc(N[C@@H]2CCNC2)c2nc(-c3nnc4ccccn34)ccc2c1` [Example 5, (R)-2-([1,2,4]Triazolo[4,3-a]pyridin-3-yl)-N-(pyrrolidin-3-yl)quinolin-8-amine]: the IC50 in assay [1] (4 μM ATP, […] PIM-2) turned out to be 2020 nM; in assay [2], 5 nM; in assay [3], 20 nM.

With `CC(C)(C)OC(=O)NCCCNc1cccc2ccc(-c3nnc4ccccn34)nc12` [Example 6, tert-Butyl 3-(2-([1,2,4]triazolo[4,3-a]pyridin-3-yl)quinolin-8-ylamino)propylcarbamate], the IC50 in assay [1] (4 μM ATP, […] PIM-2) is 10000 nM; in assay [2], 32 nM; in assay [3], 155 nM.

Take `NCCCNc1cccc2ccc(-c3nnc4ccccn34)nc12` [Example 7, N1-(2-([1,2,4]Triazolo[4,3-a]pyridin-3-yl)quinolin-8-yl)propane-1,3-diamine]: the concentration for half-maximal inhibition (IC50) in assay [1] (4 μM ATP, […] PIM-2) was found to be 1040 nM; in assay [2], 5 nM; in assay [3] it was 35 nM.

For `CC(C)CCN(CCCN)c1cccc2ccc(-c3nnc4ccccn34)nc12` [Example 8, N1-(2-([1,2,4]Triazolo[4,3-a]pyridin-3-yl)quinolin-8-yl)-N1-isopentylpropane-1,3-diamine], the IC50 in assay [1] (4 μM ATP, […] PIM-2) amounted to 5570 nM; in assay [2], 16 nM; in assay [3], 93 nM.

For `c1cc(OC2CCNCC2)c2nc(-c3nnc4ccccn34)ccc2c1` [Example 9, 2-([1,2,4]triazolo[4,3-a]pyridin-3-yl)-8-(piperidin-4-yloxy)quinoline di-trifluoroacetate], the figures for the IC50 in assay [1], in assay [2] and in assay [3] were 570 nM, 4 nM and 17 nM, respectively.

Take `c1cc(O[C@@H]2CCNC2)c2nc(-c3nnc4ccccn34)ccc2c1` [Example 11, (R)-2-([1,2,4]Triazolo[4,3-a]pyridin-3-yl)-8-(pyrrolidin-3-yloxy)quinoline]: the IC50 turned out to be 2470 nM in assay [1] (4 μM ATP, […] PIM-2); 23 nM in assay [2]; 33 nM in assay [3].

In the case of `c1cc(O[C@H]2CCNC2)c2nc(-c3nnc4ccccn34)ccc2c1` [Example 12, (S)-2-([1,2,4]Triazolo[4,3-a]pyridin-3-yl)-8-(pyrrolidin-3-yloxy)quinoline], the IC50 in assay [1] (4 μM ATP, […] PIM-2) turned out to be 4910 nM; in assay [2], 30 nM; in assay [3], 77 nM.

For the compound `c1cc(OCC2CCNCC2)c2nc(-c3nnc4ccccn34)ccc2c1` [Example 14, 2-([1,2,4]Triazolo[4,3-a]pyridin-3-yl)-8-(piperidin-4-ylmethoxy)quinoline], the IC50 amounted to 562 nM in assay [1] (4 μM ATP, […] PIM-2); 2 nM in assay [2]; 11 nM in assay [3].

Take `c1cc(OCCC2CCCCN2)c2nc(-c3nnc4ccccn34)ccc2c1` (stereo not drawn) [Example 15, 2-([1,2,4]Triazolo[4,3-a]pyridin-3-yl)-8-(2-(piperidin-2-yl)ethoxy)quinoline]: the IC50 in assay [1] (4 μM ATP, […] PIM-2) came out at 4220 nM; in assay [2] it was 16 nM; in assay [3] it was 102 nM.

`CC(C)(CO)COc1cccc2ccc(-c3nnc4cc(CN)ccn34)nc12` [Example 19, 3-(2-(7-(aminomethyl)-[1,2,4]triazolo[4,3-a]pyridin-3-yl)quinolin-8-yloxy)-2,2-dimethylpropan-1-ol]: the IC50 worked out at 17 nM in assay [1] (4 μM ATP, […] PIM-2); 0.7 nM in assay [2]; 2 nM in assay [3].

Consider `CC(C)COc1cccc2ccc(-c3nnc4cc(CN)ccn34)nc12` [Example 20, (3-(8-isobutoxyquinolin-2-yl)-[1,2,4]triazolo[4,3-a]pyridin-7-yl)methanamine], for which the IC50 in assay [1] (4 μM ATP, […] PIM-2) amounted to 51 nM; in assay [2], 2 nM; in assay [3] it was 5 nM.

As for `OCC1(COc2cccc3ccc(-c4nnc5ccccn45)nc23)CC1` [Example 22, (1-((2-([1,2,4]triazolo[4,3-a]pyridin-3-yl)quinolin-8-yloxy)methyl)cyclopropyl)methanol], the IC50 in assay [1] (4 μM ATP, […] PIM-2) amounted to 501 nM; in assay [2], 5 nM; in assay [3] it was 25 nM.

Take `c1cc(OC2CC3CCC(C2)N3)c2nc(-c3nnc4ccccn34)ccc2c1` (stereo not drawn) [Example 29, 8-(8-azabicyclo[3.2.1]octan-3-yloxy)-2-([1,2,4]triazolo[4,3-a]pyridin-3-yl)quinoline]: the IC50 was 585 nM in assay [1] (4 μM ATP, […] PIM-2); 5 nM in assay [2]; 30 nM in assay [3].

For the compound `CCC(Oc1cccc2ccc(-c3nnc4ccccn34)nc12)[C@@H](CC)CN` (stereo partly drawn) [Example 30, (2S)-3-(2([1,2,4]triazolo[4,3-a]pyridin-3-yl)quinolin-8-yloxy)-2-ethylpentan-1-amine], the IC50 in assay [1] (4 μM ATP, […] PIM-2) was 318 nM; in assay [2], 3 nM; in assay [3], 13 nM.

`CCC(Oc1cccc2ccc(-c3nnc4ccccn34)nc12)[C@H](CC)CN` (stereo partly drawn) [Example 31, (2R)-3-(2-([1,2,4]triazolo[4,3-a]pyridin-3-yl)quinolin-8-yloxy)-2-ethylpentan-1-amine]: the concentration for half-maximal inhibition (IC50) amounted to 413 nM in assay [1] (4 μM ATP, […] PIM-2); 4 nM in assay [2]; 19 nM in assay [3].

For `CC[C@@H](CN)C(C)Oc1cccc2ccc(-c3nnc4ccccn34)nc12` (stereo partly drawn) [Example 32, (2S)-3-(2-([1,2,4]triazolo[4,3-a]pyridin-3-yl)quinolin-8-yloxy)-2-ethylbutan-1-amine], the IC50 in assay [1] (4 μM ATP, […] PIM-2) was 399 nM; in assay [2], 4 nM; in assay [3], 17 nM.

In the case of `CC[C@H](CN)C(C)Oc1cccc2ccc(-c3nnc4ccccn34)nc12` (stereo partly drawn) [Example 33, (2R)-3-(2-([1,2,4]triazolo[4,3-a]pyridin-3-yl)quinolin-8-yloxy)-2-ethylbutan-1-amine], the IC50 in assay [1] (4 μM ATP, […] PIM-2) is 279 nM; in assay [2], 5 nM; in assay [3], 19 nM.

With `CCCC(Oc1cccc2ccc(-c3nnc4ccccn34)nc12)[C@@H](CC)CN` (stereo partly drawn) [Example 34, (2S)-3-(2-([1,2,4]triazolo[4,3-a]pyridin-3-yl)quinolin-8-yloxy)-2-ethylhexan-1-amine], the IC50 was determined as 1350 nM in assay [1] (4 μM ATP, […] PIM-2); 13 nM in assay [2]; 51 nM in assay [3].

Regarding `CCCC(Oc1cccc2ccc(-c3nnc4ccccn34)nc12)[C@H](CC)CN` (stereo partly drawn) [Example 35, (2R)-3-(2-([1,2,4]triazolo[4,3-a]pyridin-3-yl)quinolin-8-yloxy)-2-ethylhexan-1-amine], the IC50 in assay [1] (4 μM ATP, […] PIM-2) amounted to 1360 nM; in assay [2], 10 nM; in assay [3], 48 nM.

Regarding `NC(=O)N1CCC(Oc2cccc3ccc(-c4nnc5ccccn45)nc23)CC1` [Example 40, 4-(2-([1,2,4]triazolo[4,3-a]pyridin-3-yl)quinolin-8-yloxy)piperidine-1-carboxamide], the half-maximal inhibitory concentration (IC50) was 1280 nM in assay [1] (4 μM ATP, […] PIM-2); 12 nM in assay [2]; 46 nM in assay [3].

`FC1CNCCCC1Oc1cccc2ccc(-c3nnc4ccccn34)nc12` (stereo not drawn) [Example 51, 2-([1,2,4]triazolo[4,3-a]pyridin-3-yl)-8-(3-fluoroazepan-4-yloxy)quinoline dihydrochloride]: the IC50 worked out at 406 nM in assay [1], 3 nM in assay [2] and 10 nM in assay [3].
